According to article PMC7822592, “The half-life of the bone-derived hormone osteocalcin is regulated through O-glycosylation in mice, but not in humans” (eLife, 2020):

Test system: primary osteoblasts
Test: Percentage of carboxylated OCN (Gla-OCN) over total OCN by ELISA in osteoblast secretion medium
Type: cell-based, mouse
Method: Primary osteoblasts were transfected using jetPRIME Reagent (Polypus transfection). After an overnight incubation, media were changed to secretion media (FBS-free αMEM plus 2 mM L-glutamine, PS). After 24 hr of secretion, media were collected, and cells were lysed in protein lysis buffer (20 mM Tris-HC pH 7.4, 150 mM NaCl, 1 mM EDTA, 1 mM EGTA, 1% Triton, 1 mM PMSF, and 1 × protease inhibitor cocktail) and analyzed by western blotting. In some experiments, osteoblasts were treated with the γ-carboxylation inhibitor warfarin (50 μM; Santa Cruz Biotechnology), the N-acetylgalactosaminyltransferase inhibitor GalNAc-bn (2 mM, Sigma) or the proprotein convertase inhibitor Dec-RVKR-CMK (50 μM, Tocris), combined with 22 μM vitamin K1 (Sigma).

Compound	Gla OCN (% of total) (osteoblasts transfected with OCN-V5, inhibitor 2 mM, secretion medium, Figure 2C, replicate 1)	Gla OCN (% of total) (osteoblasts transfected with OCN-V5, inhibitor 2 mM, secretion medium, Figure 2C, replicate 2)	Gla OCN (% of total) (osteoblasts transfected with OCN-V5, inhibitor 50 μM, Figure 2D/2E, replicate 1)	Gla OCN (% of total) (osteoblasts transfected with OCN-V5, inhibitor 50 μM, Figure 2D/2E, replicate 2)	Gla OCN (% of total) (osteoblasts transfected with OCN-V5, inhibitor 50 μM, Figure 2D/2E, replicate 3)	Gla OCN (% of total) (osteoblasts transfected with OCN-V5, inhibitor 50 μM, secretion medium, Figure 2C, replicate 1)	Gla OCN (% of total) (osteoblasts transfected with OCN-V5, inhibitor 50 μM, secretion medium, Figure 2C, replicate 2)	Gla OCN (% of total) (osteoblasts transfected with OCNS8A-V5, inhibitor 50 μM, Figure 2D/2E, replicate 1)	Gla OCN (% of total) (osteoblasts transfected with OCNS8A-V5, inhibitor 50 μM, Figure 2D/2E, replicate 2)	Gla OCN (% of total) (osteoblasts transfected with OCNS8A-V5, inhibitor 50 μM, Figure 2D/2E, replicate 3)
CC(=O)N[C@H]1[C@@H](OCc2ccccc2)O[C@H](CO)[C@H](O)[C@@H]1O [GalNAc-bn, benzyl-N-acetyl-α-galactosaminide]	43.4 % of total	43.4 % of total								
CC(=O)CC(c1ccccc1)c1c(O)c2ccccc2oc1=O (stereo not shown) [Warfarin]			29.8 % of total	27.1 % of total	26.1 % of total	14.3 % of total	19.5 % of total	26.8 % of total	20.4 % of total	29.1 % of total
